Where “and” joins values, the source holds several entries; their conditions need not be identical. Identical values can stand only once. Inconclusive results and toxic doses are left out.
System: P388 leukemia ip, CD2F1 mice, survival T/C
Assay: NCI In Vivo Anticancer Drug Screen. Data for tumor model P388 Leukemia (intraperitoneal) in CD2F1 (CDF1) mice
Conditions: endpoint: median survival time, higher = longer survival
In short: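 Mice carrying the transplanted tumor received test compound or vehicle. Survival was recorded in each group, and the value is the treated-group measurement divided by that of the vehicle-treated control group.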

[1] = dose: 32.0 mg/kg/injection, schedule: Q01DX009 (ip), vehicle: saline with Tween-80
[2] = dose: 50.0 mg/kg/injection, schedule: Q01DX005 (ip), vehicle: Klucel (hydroxypropylcellulose) (HPC)
[3] = dose: 100.0 mg/kg/injection, schedule: Q01DX005 (ip), vehicle: Klucel (hydroxypropylcellulose) (HPC)
[4] = dose: 200.0 mg/kg/injection, schedule: Q01DX005 (ip), vehicle: Klucel (hydroxypropylcellulose) (HPC)
[5] = dose: 6.25 mg/kg/injection, schedule: Q01DX009 (ip), vehicle: saline with Tween-80
[6] = dose: 12.5 mg/kg/injection, schedule: Q01DX009 (ip), vehicle: saline with Tween-80
[7] = dose: 50.0 mg/kg/injection, schedule: Q01DX009 (ip), vehicle: saline with Tween-80
[8] = dose: 100.0 mg/kg/injection, schedule: Q01DX009 (ip), vehicle: saline with Tween-80
[9] = dose: 25.0 mg/kg/injection, schedule: Q01DX009 (ip), vehicle: saline with Tween-80

Cc1cn(C2CC(O)C(CO)O2)c(=O)[nH]c1=O (stereo not drawn)
T/C (dose: 16.0 mg/kg/injection, schedule: Q01DX009 (ip), vehicle: saline): 100 % of control and 105 % of control | T/C [1]: 109 % of control | T/C (dose: 64.0 mg/kg/injection, schedule: Q01DX009 (ip), vehicle: saline with Tween-80): 101 % of control | T/C (dose: 128.0 mg/kg/injection, schedule: Q01DX009 (ip), vehicle: saline with Tween-80): 101 % of control | T/C (dose: 150.0 mg/kg/injection, schedule: Q02HX012 (ip), vehicle: saline): 96 % of control | T/C (dose: 150.0 mg/kg/injection, schedule: Q04DX012 (ip), vehicle: saline): 104 % of control | T/C (dose: 200.0 mg/kg/injection, schedule: Q02HX012 (ip), vehicle: saline): 98 % of control | T/C (dose: 200.0 mg/kg/injection, schedule: Q04DX012 (ip), vehicle: saline): 102 % of control | T/C (dose: 250.0 mg/kg/injection, schedule: Q01DX001 (ip), vehicle: saline): 98 % of control | T/C (dose: 250.0 mg/kg/injection, schedule: Q01DX009 (ip), vehicle: saline): 100 % of control | T/C (dose: 256.0 mg/kg/injection, schedule: Q01DX009 (ip), vehicle: saline with Tween-80): 89 % of control | T/C (dose: 300.0 mg/kg/injection, schedule: Q02HX012 (ip), vehicle: saline): 101 % of control | T/C (dose: 300.0 mg/kg/injection, schedule: Q04DX012 (ip), vehicle: saline): 100 % of control | T/C (dose: 375.0 mg/kg/injection, schedule: Q01DX009 (ip), vehicle: saline): 107 % of control and 95 % of control | T/C (dose: 400.0 mg/kg/injection, schedule: Q02HX012 (ip), vehicle: saline): 109 % of control | T/C (dose: 400.0 mg/kg/injection, schedule: Q04DX012 (ip), vehicle: saline): 105 % of control | T/C (dose: 500.0 mg/kg/injection, schedule: Q01DX001 (ip), vehicle: saline): 98 % of control | T/C (dose: 512.0 mg/kg/injection, schedule: Q01DX009 (ip), vehicle: saline with Tween-80): 108 % of control | T/C (dose: 512.0 mg/kg/injection, schedule: Q01DX009 (ip), vehicle: saline): 99 % of control and 102 % of control | T/C (dose: 600.0 mg/kg/injection, schedule: Q02HX012 (ip), vehicle: saline): 108 % of control | T/C (dose: 600.0 mg/kg/injection, schedule: Q04DX012 (ip), vehicle: saline): 102 % of control | T/C (dose: 750.0 mg/kg/injection, schedule: Q01DX009 (ip), vehicle: saline): 115 % of control and 97 % of control | T/C (dose: 1000.0 mg/kg/injection, schedule: Q01DX009 (ip), vehicle: saline): 101 % of control and 103 % of control and 110 % of control | T/C (dose: 1500.0 mg/kg/injection, schedule: Q01DX009 (ip), vehicle: saline): 108 % of control

CN1C(=O)C(=C2C=C(c3ccccc3)C(C#N)(c3ccccc3)C(c3ccccc3)=C2)C(=O)N(C)C1=O (stereo not drawn)
T/C [2]: 106 % of control | T/C [3]: 107 % of control | T/C [4]: 101 % of control

CC(=O)O[C@H]1C2c3c(ccc4c(=O)cc(-c5ccccc5)oc34)OC2OC1(C)C (stereo partly drawn)
T/C (dose: 0.4 mg/kg/injection, schedule: Q01DX005 (ip), vehicle: Klucel (hydroxypropylcellulose) (HPC)): 97 % of control | T/C (dose: 0.8 mg/kg/injection, schedule: Q01DX005 (ip), vehicle: Klucel (hydroxypropylcellulose) (HPC)): 92 % of control | T/C (dose: 1.6 mg/kg/injection, schedule: Q01DX005 (ip), vehicle: Klucel (hydroxypropylcellulose) (HPC)): 97 % of control | T/C (dose: 3.2 mg/kg/injection, schedule: Q01DX005 (ip), vehicle: Klucel (hydroxypropylcellulose) (HPC)): 98 % of control

Cc1ccc(NCCN(C)C)c2c(=O)c3cc(O)ccc3sc12
T/C (dose: 1.0 mg/kg/injection, schedule: Q01DX009 (ip), vehicle: saline with Tween-80): 103 % of control | T/C (dose: 8.0 mg/kg/injection, schedule: Q01DX009 (ip), vehicle: Klucel (hydroxypropylcellulose) (HPC)): 180 % of control | T/C (dose: 16.0 mg/kg/injection, schedule: Q01DX009 (ip), vehicle: Klucel (hydroxypropylcellulose) (HPC)): 170 % of control | T/C (dose: 16.0 mg/kg/injection, schedule: Q01DX009 (ip), vehicle: saline with Tween-80): 151 % of control | T/C (dose: 32.0 mg/kg/injection, schedule: Q01DX009 (ip), vehicle: Klucel (hydroxypropylcellulose) (HPC)): 191 % of control | T/C [1]: 157 % of control | T/C (dose: 37.0 mg/kg/injection, schedule: Q01DX009 (ip), vehicle: Klucel (hydroxypropylcellulose) (HPC)): 97 % of control | T/C (dose: 50.0 mg/kg/injection, schedule: Q01DX009 (ip), vehicle: Klucel (hydroxypropylcellulose) (HPC)): 234 % of control | T/C (dose: 64.0 mg/kg/injection, schedule: Q01DX009 (ip), vehicle: Klucel (hydroxypropylcellulose) (HPC)): 265 % of control | T/C (dose: 100.0 mg/kg/injection, schedule: Q01DX009 (ip), vehicle: Klucel (hydroxypropylcellulose) (HPC)): 87 % of control

Cc1ccc(O)c(C(=NCCCCN=C(c2ccccc2)c2cc(C)ccc2O)c2ccccc2)c1
T/C [2]: 99 % of control | T/C [3]: 94 % of control | T/C [4]: 99 % of control

O=C1Nc2ccc([N+](=O)[O-])cc2/C1=C/C(=O)c1ccccc1
T/C (dose: 3.13 mg/kg/injection, schedule: Q01DX009 (ip), vehicle: saline with Tween-80): 101 % of control | T/C [5]: 98 % of control | T/C [6]: 96 % of control | T/C [7]: 100 % of control | T/C [8]: 108 % of control

COc1cc(O)c(Cc2ccccc2O)c(O)c1C(=O)CCc1ccccc1
T/C (dose: 1.25 mg/kg/injection, schedule: Q01DX009 (ip), vehicle: saline with Tween-80): 100 % of control | T/C (dose: 1.25 mg/kg/injection, schedule: Q01DX009 (ip), vehicle: saline): 104 % of control | T/C (dose: 2.5 mg/kg/injection, schedule: Q01DX009 (ip), vehicle: saline with Tween-80): 105 % of control | T/C (dose: 2.5 mg/kg/injection, schedule: Q01DX009 (ip), vehicle: saline): 104 % of control | T/C (dose: 5.0 mg/kg/injection, schedule: Q01DX009 (ip), vehicle: saline with Tween-80): 111 % of control | T/C (dose: 5.0 mg/kg/injection, schedule: Q01DX009 (ip), vehicle: saline): 104 % of control | T/C (dose: 10.0 mg/kg/injection, schedule: Q01DX009 (ip), vehicle: saline): 104 % of control | T/C (dose: 20.0 mg/kg/injection, schedule: Q01DX009 (ip), vehicle: saline): 101 % of control

Cc1cc2nccc(/C=C/c3ccc(N(C)C)cc3)c2cc1C
T/C [6]: 102 % of control | T/C [9]: 110 % of control | T/C [7]: 92 % of control

Cc1csc(NC(=S)NC(=O)c2ccccc2)n1
T/C (dose: 100.0 mg/kg/injection, schedule: Q04DX003 (ip), vehicle: saline with Tween-80): 91 % of control | T/C (dose: 200.0 mg/kg/injection, schedule: Q04DX003 (ip), vehicle: saline with Tween-80): 90 % of control

Nc1ccc2c(n1)NCC/C2=N\Nc1ccc(F)cc1
T/C [7]: 105 % of control | T/C [8]: 105 % of control

CC(=O)OC(OC(C)=O)c1cc(Cl)c(C(OC(C)=O)OC(C)=O)cc1Cl
T/C (dose: 60.0 mg/kg/injection, schedule: Q01DX005 (ip), vehicle: Klucel (hydroxypropylcellulose) (HPC)): 107 % of control | T/C (dose: 120.0 mg/kg/injection, schedule: Q01DX005 (ip), vehicle: Klucel (hydroxypropylcellulose) (HPC)): 106 % of control | T/C (dose: 240.0 mg/kg/injection, schedule: Q01DX005 (ip), vehicle: Klucel (hydroxypropylcellulose) (HPC)): 103 % of control

CCCN(CCC)CC1CN(/N=C/c2ccc([N+](=O)[O-])o2)C(=O)O1 (stereo not drawn)
T/C (dose: 50.0 mg/kg/injection, schedule: Q01DX005 (ip), vehicle: saline): 108 % of control | T/C (dose: 100.0 mg/kg/injection, schedule: Q01DX005 (ip), vehicle: saline): 100 % of control | T/C (dose: 200.0 mg/kg/injection, schedule: Q01DX005 (ip), vehicle: saline): 108 % of control

COc1cc2cnc(-c3ccc(Cl)c(Cl)c3)cc2cc1OC
T/C (dose: 25.0 mg/kg/injection, schedule: Q01DX009 (ip), vehicle: saline): 100 % of control | T/C (dose: 50.0 mg/kg/injection, schedule: Q01DX009 (ip), vehicle: saline): 97 % of control | T/C (dose: 100.0 mg/kg/injection, schedule: Q01DX009 (ip), vehicle: saline): 89 % of control

CC/C(=N\NC(=S)SC)c1ccccc1
T/C [7]: 91 % of control | T/C [8]: 100 % of control | T/C (dose: 200.0 mg/kg/injection, schedule: Q01DX009 (ip), vehicle: saline with Tween-80): 97 % of control

CC1c2ccoc2CC2C1C(O)C(O)C1C(C)(C)CCCC21C (stereo not drawn)
T/C (dose: 100.0 mg/kg/injection, schedule: Q04DX002 (ip), vehicle: suspension in saline): 106 % of control | T/C (dose: 200.0 mg/kg/injection, schedule: Q04DX002 (ip), vehicle: suspension in saline): 106 % of control | T/C (dose: 400.0 mg/kg/injection, schedule: Q04DX002 (ip), vehicle: suspension in saline): 98 % of control

Clc1ccc(NCc2ccc(CNc3ccc(Cl)cc3)cc2)cc1
T/C [5]: 98 % of control | T/C [6]: 91 % of control | T/C [9]: 91 % of control | T/C [7]: 97 % of control

Reference: PubChem BioAssay AID330 (DTP/NCI, 2004)
